# Measurements published in paper PMC9607599, “Dual Targeting Ligands—Histamine H3 Receptor Ligands with Monoamine Oxidase B Inhibitory Activity—In Vitro and In Vivo Evaluation” (Pharmaceutics, 2022).
# Values joined by “and” are separate entries in the source; they are usually repeats but may differ in a detail not shown here. Identical values can stand only once. Counter-ions that a name gives are not always drawn. Like-named read-outs stand apart in the source and are kept apart here.
# What was measured:
# [1] = target: human histamine H3 receptor (hH3R) (Homo sapiens, UniProt Q9Y5N1); experiment: [3H]Nα-methylhistamine radioligand binding assay in CHO-K1 cells stably expressing hH3R; set-up: expressed in transfected cells; host or cells: CHO-K1; settings: for inhibition at 1 µM / hH3R activity in words: CHO K1 cells; for inhibition at 1 µM: two independent experiments, read-out: hH3R % Inh. (radioligand inhibition); for Ki: CHO-K1 cells, [3H]Nα-methylhistamine, mean ± SEM of three independent experiments
# Sequence of human histamine H3 receptor (hH3R) (Q9Y5N1 whole entry): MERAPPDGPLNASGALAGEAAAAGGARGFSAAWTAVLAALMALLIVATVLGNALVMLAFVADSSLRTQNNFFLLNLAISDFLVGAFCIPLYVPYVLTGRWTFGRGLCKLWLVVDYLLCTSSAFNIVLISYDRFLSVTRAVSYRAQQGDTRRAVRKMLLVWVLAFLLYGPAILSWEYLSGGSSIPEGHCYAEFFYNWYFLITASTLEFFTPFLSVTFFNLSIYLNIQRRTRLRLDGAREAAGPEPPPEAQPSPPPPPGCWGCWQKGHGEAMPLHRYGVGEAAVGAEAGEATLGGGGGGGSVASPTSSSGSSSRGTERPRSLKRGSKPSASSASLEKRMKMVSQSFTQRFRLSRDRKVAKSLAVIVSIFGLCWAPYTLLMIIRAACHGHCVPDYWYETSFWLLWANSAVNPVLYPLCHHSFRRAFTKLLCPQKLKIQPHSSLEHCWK
# Description: Affinity to hH3R stably expressed in CHO-K1 [6] or HEK293 [11] cells was evaluated in a radioligand binding assay as described previously. Briefly, 10 mM stock solutions of the test compounds in DMSO were prepared. Each compound was tested at eight concentrations ranging from 10^−5 to 10^−12 M (final concentration). All assays were carried out in duplicate. […] The radioactivity was counted in MicroBeta 2 [6] or MicroBeta Trilux counter (PerkinElmer). Data were fitted to a one-site curve-fitting equation with Prism 6 (GraphPad Software, San Diego, CA, USA) and Ki values were calculated from IC50 values (from at least three experiments performed in duplicates) according to the Cheng−Prusoff equation [12].
# Affinity for hH3R was evaluated in a radioligand binding assay using [^3H]N^α-methylhistamine as radioligand in CHO K1 or HEK293 cells stably expressing hH3R as described previously. […] Then, those with at least 50% inhibition for hH3R were selected for further testing (Ki evaluation). […] Compounds were tested in the binding assay in HEK293 cells.
# human MAO B (hMAO B) [2] = target: T1, human MAO B (hMAO B) (Homo sapiens, UniProt P27338); experiment: fluorometric MAO assay (p-tyramine substrate); format: biochemical; settings: for IC50: fluorometric MAO assay, mean ± SEM of 2–4 independent experiments; for inhibition at 1 µM: mean of two independent experiments, read-out: hMAO B % of Inh.
# T1 sequence (P27338 1-520): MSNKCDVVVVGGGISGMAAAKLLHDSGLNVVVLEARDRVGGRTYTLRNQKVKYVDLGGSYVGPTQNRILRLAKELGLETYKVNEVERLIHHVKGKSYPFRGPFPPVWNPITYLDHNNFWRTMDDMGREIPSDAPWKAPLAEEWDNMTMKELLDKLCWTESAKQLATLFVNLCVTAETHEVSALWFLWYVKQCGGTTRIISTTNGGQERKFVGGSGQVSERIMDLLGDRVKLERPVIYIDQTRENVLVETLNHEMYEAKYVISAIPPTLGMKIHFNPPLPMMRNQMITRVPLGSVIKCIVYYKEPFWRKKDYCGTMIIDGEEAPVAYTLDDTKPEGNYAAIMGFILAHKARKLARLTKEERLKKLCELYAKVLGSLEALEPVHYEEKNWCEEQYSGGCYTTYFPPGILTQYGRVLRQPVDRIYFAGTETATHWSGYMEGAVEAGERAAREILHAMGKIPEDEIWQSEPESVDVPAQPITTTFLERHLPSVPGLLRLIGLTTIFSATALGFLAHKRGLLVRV
# Description: The precise method was described in [6]. First, compounds 4–32 were screened for hMAO B inhibitory activity at 1 μM concentration by the fluorometric method. Para-tyramine (200 μM) was used as a substrate for the enzyme and safinamide (1 μM) was used as a reference compound. […] Each experiment was performed in duplicate.
# All compounds were first screened for hMAO B inhibitory activity at the concentration of 1 μM. […] Based on the results, we selected compounds 9 and 13 for further analysis.
# human MAO B (hMAO B) [3] = target: T1, human MAO B (hMAO B); experiment: modality of hMAO B inhibition (Michaelis-Menten / Lineweaver-Burk); format: biochemical
# Description: Modality of hMAO B inhibition was evaluated for compounds 9 and 13 and the reference safinamide according to the method described previously. Three concentrations of inhibitors, corresponding to their IC20, IC50 and IC80 values, were used. Each experiment was performed in triplicate. KM and Vmax values were calculated from Michaelis–Menten curves by nonlinear regression from the substrate. Lineweaver–Burk plots were calculated using linear regression in GraphPad Prism 6.07 (GraphPad Software, San Diego, CA, USA).
# For testing modality of enzyme inhibition, we used three concentrations of inhibitors that corresponded to their IC20, IC50 and IC80 values. Substrate (p-tyramine) was used at concentrations: 0.05, 0.1, 0.5, 1.0, 1.5 and 2.0 mM.
# MAO B = target: T2, MAO B (Homo sapiens, UniProt P27338); experiment: reversibility of MAO B inhibition (reactivation by excess p-tyramine, with/without preincubation); format: biochemical; settings: inhibitor at IC80; for reversibility of MAO B inhibition: excess p-tyramine 200 µM
# T2 sequence (P27338 1-520): T1 sequence (P27338 1-520)
# Description: The reversibility of the MAO inhibition was tested as described in [6, 7]. […] Two variants of experiment were performed. […] After 22 min, the concentration of the substrate was increased to 200 µM and the signal was measured for 5 h.
# [4] = inhibitor at IC20, IC50, IC80, p-tyramine 0.05–2.0 mM
SMILES,inhibition at 1 µM [1],IC50 (human MAO B (hMAO B) [2]),Ki ([1]; read-out: hH3R Ki [nM] ± SEM),melting point,inhibition at 1 µM (human MAO B (hMAO B) [2]),further results
"CCN(CC)CCCOc1ccc(C(C)(C)C)cc1.O=C(O)C(=O)O (hydrate or solvate) [Compound 7, 3-(4-(tert-Butyl)phenoxy)-N,N-diethylpropan-1-amine hydrogen oxalate]",–,–,–,105 to 108 °C,–,–
"CC1CCCC(C)N1CCCOc1ccc(C(C)(C)C)cc1.Cl (centres unmarked) (hydrate or solvate) [Compound 11, 1-(3-(4-(tert-Butyl)phenoxy)propyl)-2,6-dimethylpiperidine hydrogen chloride]",–,–,–,194 to 196 °C (dec.),–,–
"CC(C)(C)c1cccc(OCCCN2CCCCC2)c1.Cl (hydrate or solvate) [Compound 25, 1-(3-(3-(tert-Butyl)phenoxy)propyl)piperidine hydrogen chloride]",–,–,–,145 to 148 °C,–,–
"CN(C)CCCOc1ccc(C(C)(C)C)cc1 [Compound 4, 3-(4-(tert-Butyl)phenoxy)-N,N-dimethylpropan-1-amine hydrogen oxalate]",24%,19 ± 2 nM,–,–,–,–
"CC(C)N(C)CCCOc1ccc(C(C)(C)C)cc1 [Compound 6, 3-(4-(tert-Butyl)phenoxy)-N-isopropyl-N-methylpropan-1-amine hydrogen oxalate]",–,6 ± 1 nM,900 ± 75 nM,–,–,–
"CC(C)(C)c1ccc(OCCCN2CCOCC2)cc1.O=C(O)C(=O)O [Compound 14, 4-(3-(4-(tert-Butyl)phenoxy)propyl)morpholine hydrogen oxalate]",11%,192 ± 14 nM,–,188 to 192 °C,–,hH3R activity in words [1]: weak potency
"CN1CCN(CCCOc2ccc(C(C)(C)C)cc2)CC1.O=C(O)C(=O)O [Compound 15, 1-(3-(4-(tert-Butyl)phenoxy)propyl)-4-methylpiperazine hydrogen oxalate]",0%,665 ± 118 nM,–,–,–,hH3R activity in words [1]: no activity at all
"CC(C)(C)c1ccc(OCCCN2CCN(c3ccccc3)CC2)cc1.O=C(O)C(=O)O [Compound 16, 1-(3-(4-(tert-Butyl)phenoxy)propyl)-4-phenylpiperazine hydrogen oxalate]",–,–,–,164 to 166 °C,14%,hH3R activity in words [1]: weak potency; Ki ([1]; hH3R Ki [nM] ± SEM): 535 ± 41 nM
"CC(C)(C)c1ccc(OCCCN2CCN(C/C=C\c3ccccc3)CC2)cc1.O=C(O)C(=O)O [Compound 17, (Z)-1-(3-(4-(tert-Butyl)phenoxy)propyl)-4-(3-phenylallyl)piperazine hydrogen oxalate]",0%,–,–,217 to 219 °C,7%,hH3R activity in words [1]: no activity at all
"CC(C)(C)c1cccc(OCCCN2CCCCC2)c1 [Compound 25, 1-(3-(3-(tert-Butyl)phenoxy)propyl)piperidine hydrogen chloride]",–,1020 ± 69 nM,340 ± 23 nM,–,–,–
"Cc1cccc(C(C)(C)C)c1OCCCN1CCCCC1.O=C(O)C(=O)O [Compound 26, 1-(3-(2-(tert-Butyl)-6-methylphenoxy)propyl)piperidine hydrogen oxalate]",0%,–,> 1000 nM,134 to 135 °C,0%,–
"Cc1ccc(C(C)(C)C)c(OCCCN2CCCCC2)c1 [Compound 27, 1-(3-(2-(tert-Butyl)-5-methylphenoxy)propyl)piperidine hydrogen oxalate]",0%,–,> 1000 nM,–,4%,–
"Cc1ccc(OCCCN2CCCCC2)c(C(C)(C)C)c1.O=C(O)C(=O)O [Compound 28, 1-(3-(2-(tert-Butyl)-4-methylphenoxy)propyl)piperidine hydrogen oxalate]",–,–,448 ± 59 nM,182 to 184 °C,7%,–
"CC(C)(C)CC(C)(C)NC(=O)OCCCN1CCCCC1 [Compound 31, 3-(Piperidin-1-yl)propyl (2,4,4-trimethylpentan-2-yl)carbamate hydrogen oxalate]",19%,–,–,–,41%,–
"CC(C)(C)c1ccc(OCCCN2CCCCC2)cc1 [DL76, 1-(3-(4-tert-butylphenoxy)propyl)piperidine, reference compound]",–,–,57 nM and 57.5 nM,–,–,–
"C[C@H](NCc1ccc(OCc2cccc(F)c2)cc1)C(N)=O [Safinamide, reference compound]",–,–,–,–,–,Affinity (free enzyme vs enzyme-substrate complex) (human MAO B (hMAO B) [3]): Free enzyme > enzyme-substrate complex; Mode of inhibition from kinetic values and LB plot (human MAO B (hMAO B) [3]): Mixed mode; Lines on LB plot (human MAO B (hMAO B) [3]; Lineweaver–Burk double-reciprocal plot): Lines intersect to the left of y-axis and above x-axis; app. KM (human MAO B (hMAO B) [3]; [4]): ↑ curvilinearly with ↑ [I]; app. Vmax (human MAO B (hMAO B) [3]; [4]): ↓ curvilinearly with ↑ [I]; app. Vmax/app. KM (human MAO B (hMAO B) [3]; [4]): ↓ curvilinearly with ↑ [I]; effect of 30 min preincubation on inhibition (preincubated vs non-preincubated) (MAO B): did not show differences between the variants; reversibility of MAO B inhibition (MAO B): reversible inhibition
"C#CCN[C@@H]1CCc2ccccc21 [rasagiline, reference compound]",–,–,–,–,–,effect of 30 min preincubation on inhibition (preincubated vs non-preincubated) (MAO B): inhibited the enzyme more strongly than non-preincubated; reversibility of MAO B inhibition (MAO B): Irreversible inhibition

# Continued, in another order:
inhibition at 1 µM [1],IC50 (human MAO B (hMAO B) [2]),Ki ([1]; read-out: hH3R Ki [nM] ± SEM),SMILES,melting point,inhibition at 1 µM (human MAO B (hMAO B) [2]),further results
–,9 nM,484 ± 15 nM,"CCN(C)CCCOc1ccc(C(C)(C)C)cc1 [Compound 5, 3-(4-(tert-Butyl)phenoxy)-N-ethyl-N-methylpropan-1-amine hydrogen oxalate]",–,–,–
32%,15 ± 4 nM,–,"CCN(CC)CCCOc1ccc(C(C)(C)C)cc1 [Compound 7, 3-(4-(tert-Butyl)phenoxy)-N,N-diethylpropan-1-amine hydrogen oxalate]",–,–,–
8%,37 ± 6 nM,–,"CC(C)N(CCCOc1ccc(C(C)(C)C)cc1)C(C)C [Compound 8, 3-(4-(tert-Butyl)phenoxy)-N,N-diisopropylpropan-1-amine hydrogen chloride]",–,–,–
–,9 ± 1 nM,< 100 nM and 97 nM,"CC1CCCC(C)N1CCCOc1ccc(C(C)(C)C)cc1 (centres unmarked) [Compound 11, 1-(3-(4-(tert-Butyl)phenoxy)propyl)-2,6-dimethylpiperidine hydrogen chloride]",–,–,–
13%,–,> 1000 nM,"CC(C)(C)c1ccccc1OCCCN1CCCCC1 [Compound 24, 1-(3-(2-(tert-Butyl)phenoxy)propyl)piperidine hydrogen oxalate]",–,4%,–
32%,2320 ± 436 nM,> 1000 nM,"CC(C)(C)c1ccc(NC(=O)OCCCN2CCCCC2)cc1 [Compound 29, 3-(Piperidin-1-yl)propyl (4-(tert-butyl)phenyl)carbamate hydrogen oxalate]",–,–,–
15%,–,–,"CC(C)(C)NC(=O)OCCCN1CCCCC1 [Compound 30, 3-(Piperidin-1-yl)propyl tert-butylcarbamate hydrogen oxalate]",–,47%,–
20%,925 ± 29 nM,–,"CC(C)(C)CCNC(=O)OCCCN1CCCCC1 [Compound 32, 3-(Piperidin-1-yl)propyl (3,3-dimethylbutyl)carbamate hydrogen oxalate]",–,–,–
